Patent US20230146455A1, “TREATMENT OF INFLAMMATORY DISEASES WITH PEPTIDES AND PHARMACEUTICAL COMPOSITIONS” (Yuyu Pharma, Inc., priority 2020, published 2023)
Values joined by “and” are separate entries in the source; they are usually repeats but may differ in a detail not shown here. Equal entries are not always repeated. Where a SMILES comes first, the peptide text is derived from it. [ ]: non-standard residue; d: D form. Hyp = O=C(O)[C@@H]1C[C@@H](O)CN1

Legend:
[1] = test system: VEGF-A; assay: Example 9 Luminex, LPS hPBMCs: VEGF-A; assay type: cell-based, human; details: Bead VEGF-A; for Concentration: dilution 2.0
Description: (§1) Treatment Human PBMCs were pretreated with YY-101, YDE-011 and YDE-043 or reference compound; Xiidra® at various concentration (ranging from 1 nM to 100 uM) for 2 h before stimulation. An equal volume of 0.5% DMSO was used as a vehicle control. Then, the cells were treated with LPS at 5 ug/ml. The supernatants from treated cells were harvested at 24 h and placed in a 96 well for Luminex cytokine & chemokine profiling using a Luminex 200 multiplex assay (Luminex; R&D system, USA).
(§2) The main study arm with triplicate wells per group in a 24-well plate: • 1. Blank • 2. PBMC: 0.5% DMSO • 3. PBMC+LPS (5 ug/ml) • 4. PBMC+YY-101 100 uM • 5. PBMC+YY-101 10 uM • 6. PBMC+YY-101 1 uM • 7. PBMC+YY-101 0.1 uM • 8. PBMC+YY-101 0.01 uM • 9. PBMC+LPS (5 ug/ml)+Xiidra®100 uM • 10. PBMC+LPS (5 ug/ml)+Xiidra® 10 uM • 11. PBMC+LPS (5 ug/ml)+Xiidra® 1 uM • 12. PBMC+LPS (5 ug/ml)+Xiidra®0.1 uM • 13. PBMC+LPS (5 ug/ml)+Xiidra®0.01 uM • 14. PBMC+LPS (5 ug/ml)+Xiidra®0.001 uM • 15. PBMC+LPS (5 ug/ml)+YY-101 100 uM • 16. PBMC+LPS (5 ug/ml)+YY-101 10 uM • 17. PBMC+LPS (5 ug/ml)+YY-101 1 uM • 18. PBMC+LPS (5 ug/ml)+YY-101 0.1 uM • 19. PBMC+LPS (5 ug/ml)+YY-101 0.01 uM • 20. PBMC+LPS (5 ug/ml)+YY-101 0.001 uM • 21. PBMC+LPS (5 ug/ml)+YDE-011 100 uM • 22. PBMC+LPS (5 ug/ml)+YDE-011 10 uM • 23. PBMC+LPS (5 ug/ml)+YDE-011 1 uM • 24. PBMC+LPS (5 ug/ml)+YDE-011 0.1 uM • 25. PBMC+LPS (5 ug/ml)+YDE-011 0.01 uM • 26. PBMC+LPS (5 ug/ml)+YDE-011 0.001 uM • 27. PBMC+LPS (5 ug/ml)+YDE-043 100 uM • 28. PBMC+LPS (5 ug/ml)+YDE-043 10 uM • 29. PBMC+LPS (5 ug/ml)+YDE-043 1 uM • 30. PBMC+LPS (5 ug/ml)+YDE-043 0.1 uM • 31. PBMC+LPS (5 ug/ml)+YDE-043 0.01 uM • 32. PBMC+LPS (5 ug/ml)+YDE-043 0.001 uM
(§3) Multiplex assay was used to measure 30 cytokines and chemokines. The 1:2, 1:10 and 1:200 diluted cell supernatant and serial dilution of the standard were dispensed into a 96 well plate at 50 ul/well. Then, the pre-mixed cocktail of antibody-coated magnetic beads was dispensed at 50 ul/well and incubated at room temperature for 2 h in a horizontal orbital microplate shaker at 800±500 rpm. The beads were washed using a magnetic device to prevent loss. The biotin-antibody was dispensed in 50 ul of each well and incubated at room temperature for 1 h in a shaker at 800±500 rpm. After washing, streptavidin-PE was added at 50 ul/well and incubated at room temperature for 30 min in a shaker under the same conditions. Finally, after washing, wash buffer (100 ul/well) was added to the plate and incubated in a shaker for 2 min. The Luminex™ 200 setting were set according to the manufacturer's protocol. The data was calculated with a standard five-parameter logistic nonlinear regression analysis of the data (xPonent software 4.2, USA). The levels of cytokine/chemokine are normalized to the live cell counts (1×10^5 cells/mL) and presented as concentrations per mL (pg/mL or ng/mL).

[2] = test system: IL-8; assay: Example 9 Luminex, LPS hPBMCs: IL-8; assay type: cell-based, human
Description: as §1, §2, §3

[3] = PBMC + LPS(5 ug/ml) + test article 0.001 uM, Mean
[4] = PBMC + LPS(5 ug/ml) + test article 0.001 uM, single replicates
[5] = PBMC + LPS(5 ug/ml) + test article 0.01 uM, Mean
[6] = PBMC + LPS(5 ug/ml) + test article 0.01 uM, single replicates
[7] = PBMC + LPS(5 ug/ml) + test article 0.1 uM, Mean
[8] = PBMC + LPS(5 ug/ml) + test article 0.1 uM, single replicates
[9] = PBMC + LPS(5 ug/ml) + test article 1 uM, Mean
[10] = PBMC + LPS(5 ug/ml) + test article 1 uM, single replicates
[11] = PBMC + LPS(5 ug/ml) + test article 10 uM, Mean
[12] = PBMC + LPS(5 ug/ml) + test article 10 uM, single replicates
[13] = PBMC + LPS(5 ug/ml) + test article 100 uM, Mean
[14] = PBMC + LPS(5 ug/ml) + test article 100 uM, single replicates
[15] = PBMC + LPS(5 ug/ml) + test article 0.001 uM, single replicates (1st, 2nd, 3rd)
[16] = PBMC + LPS(5 ug/ml) + test article 0.01 uM, single replicates (1st, 2nd, 3rd)
[17] = PBMC + LPS(5 ug/ml) + test article 0.1 uM, single replicates (1st, 2nd, 3rd)
[18] = PBMC + LPS(5 ug/ml) + test article 1 uM, single replicates (1st, 2nd, 3rd)
[19] = PBMC + LPS(5 ug/ml) + test article 10 uM, single replicates (1st, 2nd, 3rd)
[20] = PBMC + LPS(5 ug/ml) + test article 100 uM, single replicates (1st, 2nd, 3rd)

For `CC(C)C[C@H](NC(=O)[C@H](CCC(N)=O)NC(=O)CNC(=O)[C@@H]1C[C@@H](O)CN1)C(=O)NCC(=O)O` [YDE-043] (H-[Hyp]GQLG-OH; N-terminus and C-terminus assumed), the conc/live cell [1, 3] was 0.7 pg/10^5, the Concentration [1, 3] was 3.6 pg/mL and the Concentration [1, 4] was 3.6 pg/mL. The conc/live cell [1, 4] was 0.8 pg/10^5 (2×) and 0.6 pg/10^5, the conc/live cell [1, 5] was 0.1 pg/10^5 and the Concentration [1, 5] was 0.6 pg/mL. For the same molecule, the Concentration [1, 6] was 0.6 pg/mL, the conc/live cell [1, 6] was 0.1 pg/10^5 and the conc/live cell [1, 7] was 0.1 pg/10^5. For the same molecule, the Concentration [1, 7] was 0.6 pg/mL, the Concentration [1, 8] was 0.6 pg/mL and the conc/live cell [1, 8] was 0.1 pg/10^5. The conc/live cell [1, 9] was 0.8 pg/10^5, the Concentration [1, 9] was 4.4 pg/mL and the Concentration [1, 10] was 6.1 pg/ml and 3.6 pg/ml (2×). For the same molecule, the conc/live cell [1, 10] was 1.1 pg/10^5 and 0.7 pg/10^5 (2×), the conc/live cell [1, 11] was 0.7 pg/10^5 and the Concentration [1, 11] was 5.5 pg/mL. The Concentration [1, 12] was 6.1 pg/mL and 4.9 pg/mL, the conc/live cell [1, 12] was 0.0 pg/10^5 and 1.1 pg/10^5 and 0.9 pg/10^5 and the conc/live cell [1, 13] was 0.4 pg/10^5. The Concentration [1, 13] was 4.9 pg/mL, the Concentration [1, 14] was 4.9 pg/mL and the conc/live cell [1, 14] was 0.8 pg/10^5 and 0.0 pg/10^5. The Concentration [2, 3] was 27612.8 pg/mL, the conc/live cell [2, 3] was 5610.5 pg/10^5 and the Concentration [2, 15] was 25319.8 pg/mL and 28134.2 pg/mL and 29384.5 pg/mL. For the same molecule, the conc/live cell [2, 15] was 5754.5 pg/10^5 and 4689.0 pg/10^5 and 6387.9 pg/10^5, the Concentration [2, 5] was 27805.6 pg/mL and the conc/live cell [2, 5] was 5331.3 pg/10^5. For the same molecule, the Concentration [2, 16] was 28010.8 pg/mL and 27056.0 pg/mL and 28350.1 pg/mL, the conc/live cell [2, 16] was 6224.6 pg/10^5 and 4099.4 pg/10^5 and 5670.0 pg/10^5 and the Concentration [2, 7] was 26729.6 pg/mL. For the same molecule, the conc/live cell [2, 7] was 4969.6 pg/10^5, the Concentration [2, 17] was 27502.4 pg/mL and 24737.2 pg/mL and 27949.2 pg/mL and the conc/live cell [2, 17] was 5500.5 pg/10^5 and 4417.4 pg/10^5 and 4990.9 pg/10^5. The Concentration [2, 9] was 26441.2 pg/mL, the conc/live cell [2, 9] was 4990.4 pg/10^5 and the Concentration [2, 18] was 27517.8 pg/mL and 23008.1 pg/mL and 28797.5 pg/mL. For the same molecule, the conc/live cell [2, 18] was 4744.4 pg/10^5 and 4793.4 pg/10^5 and 5433.5 pg/10^5, the Concentration [2, 11] was 29354.3 pg/mL and the conc/live cell [2, 11] was 5450.9 pg/10^5. The Concentration [2, 19] was 28998.3 pg/mL and 34618.6 pg/mL and 24446.1 pg/mL, the conc/live cell [2, 19] was 5576.6 pg/10^5 and 6410.8 pg/10^5 and 4365.4 pg/10^5 and the Concentration [2, 13] was 25505.9 pg/mL. The conc/live cell [2, 13] was 4053.3 pg/10^5, the Concentration [2, 20] was 26994.4 pg/mL and 24017.4 pg/mL and the conc/live cell [2, 20] was 4353.9 pg/10^5 and 3752.7 pg/10^5.
